Data as given in patent US20060241122A1, “Combination therapy for the treatment of neoplasms” (priority 2003, published 2006).

Columns and labels:
[1] = test system: non-small cell lung carcinoma A549 cells; assay: Anti-proliferation assay (Alamar Blue metabolism), A549 cells; assay type: cell-based; details: 72 h
Description: Inhibition of proliferation was measured by anti-proliferation assay as described below after incubation with the test compound(s) for 72 hours.
(§1) The combination matrices were used immediately and discarded.
Cells were diluted in culture media such that 3,000 SKMEL-28 cells, or 1,500 cells for all the other cell lines, were delivered in 35 μl of media into each assay well. Assay plates were incubated for 16-24 hours 37° C.±0.5° C. with 5% CO2. […] Assay plates were further incubated for 72 hours at 37° C.±0.5° C. with 5% CO2. […] Alamar Blue metabolism was quantified by the amount of fluorescence intensity 3.5-5.0 hours after addition.
The percent inhibition (% I) for each well was calculated using the following formula: % I=[(avg. untreated wells−treated well)/(avg. untreated wells)]×100 The average untreated well value (avg. untreated wells) is the arithmetic mean of 40 wells from the same assay plate treated with vehicle alone.

[2] = test system: human pancreatic cancer PANC1 cells; assay: Anti-proliferation assay (Alamar Blue metabolism), PANC1 cells; assay type: cell-based; details: 72 h
From the text: as §1

[3] = test system: human melanoma SKMEL-28 cells; assay: Anti-proliferation assay (Alamar Blue metabolism), SKMEL-28 cells; assay type: cell-based; details: 72 h
From the text: as §1

[4] = test system: human prostate cancer DU145 cells; assay: Anti-proliferation assay (Alamar Blue metabolism), DU145 cells; assay type: cell-based; details: 72 h
From the text: as §1

[5] = test system: human colorectal carcinoma HCT116 cells; assay: Anti-proliferation assay (Alamar Blue metabolism), HCT116 cells; details: for Percent inhibition of Alamar Blue Metabolism in HCT116 cells: 72 h;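 on all read-outs here: cells in 384-well plates exposed to compound combination matrices for 72 h, Alamar Blue fluorescence read (excitation 530 nm), inhibition calculated against mean of vehicle-only wells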
Description: Stock solutions (1000×) of each compound were prepared in DMSO and stored at −20° C. Master stock plates of 2-fold or 4-fold serial dilutions of individual compounds were prepared in 384-well plates. Combination matrices of test compounds were generated from these master stock plates by dilution into growth media described above. […] The combination matrices were used immediately and discarded.
The anti-proliferation assays were performed in 384-well plates. […] Cells were diluted in culture media such that 3,000 SKMEL-28 cells, or 1,500 cells for all the other cell lines, were delivered in 35 μl of media into each assay well. Assay plates were incubated for 16-24 hours 37° C.±0.5° C. with 5% CO2. After incubation, 4.5 μl of 10× stock solutions from the combination matrices were added to 40 μl of culture media. Assay plates were further incubated for 72 hours at 37° C.±0.5° C. with 5% CO2. […] Alamar Blue metabolism was quantified by the amount of fluorescence intensity 3.5-5.0 hours after addition. Quantification, using an LJL Analyst AD reader (LJL Biosystems), was taken in the middle of the well with high attenuation, a 100 msec read time, an excitation filter at 530 nm, and an emission filter at 575 nm. For some experiments, quantification was performed using a Wallac Victor^2 reader. Measurements were taken at the top of the well with stabilized energy lamp control; a 100 msec read time, an excitation filter at 530 nm, and an emission filter at 590 nm.

In the case of CCC(C)n1ncn(-c2ccc(N3CCN(c4ccc(OCC5COC(Cn6cncn6)(c6ccc(Cl)cc6Cl)O5)cc4)CC3)cc2)c1=O (centres unmarked) [Itraconazole, itraconazole], the “Percent inhibition of Alamar Blue Metabolism in A549 cells” value (“Percent inhibition … in A549 cells” for short) ([1]; itraconazole 0.87 μM + simvastatin at row conc. c1 (0-48 μM)) is reported as 13.5%, the “Percent inhibition … in A549 cells” value ([1]; itraconazole 7 μM + simvastatin at row conc. c1 (0-48 μM)) is reported as 4.0% and the “Percent inhibition … in A549 cells” value ([1]; itraconazole 14 μM + simvastatin at row conc. c1 (0-48 μM)) is reported as 13.3%. The “Percent inhibition … in A549 cells” value ([1]; itraconazole 28 μM + simvastatin at row conc. c1 (0-48 μM)) was 13.9%, the “Percent inhibition of Alamar Blue Metabolism in PANC1 cells” value (from here on “Percent inhibition … in PANC1 cells”) ([2]; Table 4: itraconazole 0.87 μM + simvastatin at row conc. c1 (0-48 μM)) was 2.6% and the “Percent inhibition … in PANC1 cells” value ([2]; Table 4: itraconazole 7 μM + simvastatin at row conc. c1 (0-48 μM)) was −2.6%. For the same molecule, the “Percent inhibition … in PANC1 cells” value ([2]; Table 4: itraconazole 14 μM + simvastatin at row conc. c1 (0-48 μM)) was 2.1%, the “Percent inhibition … in PANC1 cells” value ([2]; Table 4: itraconazole 28 μM + simvastatin at row conc. c1 (0-48 μM)) was 1.7% and the “Percent inhibition … in PANC1 cells” value ([2]; Table 8: itraconazole 0.87 μM + atorvastatin at row conc. c1 (0-36 μM)) was 9.8%. For the same molecule, the “Percent inhibition … in PANC1 cells” value ([2]; Table 8: itraconazole 7 μM + atorvastatin at row conc. c1 (0-36 μM)) was −0.6%, the “Percent inhibition … in PANC1 cells” value ([2]; Table 8: itraconazole 14 μM + atorvastatin at row conc. c1 (0-36 μM)) was −4.4% and the “Percent inhibition … in PANC1 cells” value ([2]; Table 8: itraconazole 28 μM + atorvastatin at row conc. c1 (0-36 μM)) was −2.5%. The “Percent inhibition … in PANC1 cells” value ([2]; Table 12: itraconazole 0.87 μM + fluvastatin at row conc. c1 (0-49 μM)) was 4.9%, the “Percent inhibition … in PANC1 cells” value ([2]; Table 12: itraconazole 7 μM + fluvastatin at row conc. c1 (0-49 μM)) was −1.9% and the “Percent inhibition … in PANC1 cells” value ([2]; Table 12: itraconazole 14 μM + fluvastatin at row conc. c1 (0-49 μM)) was −8.1%. For the same molecule, the “Percent inhibition … in PANC1 cells” value ([2]; Table 12: itraconazole 28 μM + fluvastatin at row conc. c1 (0-49 μM)) was −3.7%, the “Percent inhibition of Alamar Blue Metabolism in SKMEL-28 cells” value (shortened to “Percent inhibition … in SKMEL-28 cells”) ([3]; Table 5: itraconazole 0.87 μM + simvastatin at row conc. c1 (0-48 μM)) was 1.0% and the “Percent inhibition … in SKMEL-28 cells” value ([3]; Table 5: itraconazole 7 μM + simvastatin at row conc. c1 (0-48 μM)) was 13.5%. For the same molecule, the “Percent inhibition … in SKMEL-28 cells” value ([3]; Table 5: itraconazole 14 μM + simvastatin at row conc. c1 (0-48 μM)) was 19.3%, the “Percent inhibition … in SKMEL-28 cells” value ([3]; Table 5: itraconazole 28 μM + simvastatin (0-48 μM)) was 16.7% and the “Percent inhibition … in SKMEL-28 cells” value ([3]; Table 9: itraconazole 0.87 μM + atorvastatin at row conc. c1 (0-36 μM)) was 1.4%. For the same molecule, the “Percent inhibition … in SKMEL-28 cells” value ([3]; Table 9: itraconazole 7 μM + atorvastatin at row conc. c1 (0-36 μM)) was 11.2%, the “Percent inhibition … in SKMEL-28 cells” value ([3]; Table 9: itraconazole 14 μM + atorvastatin at row conc. c1 (0-36 μM)) was 13.0% and the “Percent inhibition … in SKMEL-28 cells” value ([3]; Table 9: itraconazole 28 μM + atorvastatin at row conc. c1 (0-36 μM)) was 13.5%. The “Percent inhibition … in SKMEL-28 cells” value ([3]; Table 13: itraconazole 0.87 μM + fluvastatin at row conc. c1 (0-49 μM)) was 2.8%, the “Percent inhibition … in SKMEL-28 cells” value ([3]; Table 13: itraconazole 7 μM + fluvastatin at row conc. c1 (0-49 μM)) was 11.3% and the “Percent inhibition … in SKMEL-28 cells” value ([3]; Table 13: itraconazole 14 μM + fluvastatin at row conc. c1 (0-49 μM)) was 13.3%. For the same molecule, the “Percent inhibition … in SKMEL-28 cells” value ([3]; Table 13: itraconazole 28 μM + fluvastatin at row conc. c1 (0-49 μM)) was 16.3%, the “Percent inhibition of Alamar Blue Metabolism in DU145 cells” value (shortened to “Percent inhibition … in DU145 cells”) ([4]; Table 6: itraconazole 0.87 μM + atorvastatin at row conc. c1 (0-36 μM)) was 0.8% and the “Percent inhibition … in DU145 cells” value ([4]; Table 6: itraconazole 7 μM + atorvastatin at row conc. c1 (0-36 μM)) was −3.5%. The “Percent inhibition … in DU145 cells” value ([4]; Table 6: itraconazole 14 μM + atorvastatin at row conc. c1 (0-36 μM)) was −4.2%, the “Percent inhibition … in DU145 cells” value ([4]; Table 6: itraconazole 28 μM + atorvastatin at row conc. c1 (0-36 μM)) was −8.8% and the “Percent inhibition … in DU145 cells” value ([4]; Table 10: itraconazole 0.87 μM + fluvastatin at row conc. c1 (0-49 μM)) was 2.1%. The “Percent inhibition … in DU145 cells” value ([4]; Table 10: itraconazole 7 μM + fluvastatin at row conc. c1 (0-49 μM)) was −7.4%, the “Percent inhibition … in DU145 cells” value ([4]; Table 10: itraconazole 14 μM + fluvastatin at row conc. c1 (0-49 μM)) was −5.6% and the “Percent inhibition … in DU145 cells” value ([4]; Table 10: itraconazole 28 μM + fluvastatin at row conc. c1 (0-49 μM)) was −9.0%. For the same molecule, the inhibition at 7 µM ([5]; Homo sapiens, HCT-116, read-out: Percent inhibition of Alamar Blue Metabolism, cerivastatin 0 μM, itraconazole 7 μM) was 24.3%, the inhibition at 28 µM ([5]; Homo sapiens, HCT-116, read-out: Percent inhibition of Alamar Blue Metabolism, cerivastatin 0 μM, itraconazole 28 μM) was 27.7% and the “Percent inhibition of Alamar Blue Metabolism in HCT116 cells” value (“Percent inhibition … in HCT116 cells” below) ([5]; Table 2: itraconazole 0.87 μM + simvastatin at row conc. c1 (0-48 μM)) was 3.9%. For the same molecule, the “Percent inhibition … in HCT116 cells” value ([5]; Table 2: itraconazole 7 μM + simvastatin at row conc. c1 (0-48 μM)) was 18.9%, the “Percent inhibition … in HCT116 cells” value ([5]; Table 2: itraconazole 14 μM + simvastatin at row conc. c1 (0-48 μM)) was 19.2% and the “Percent inhibition … in HCT116 cells” value ([5]; Table 2: itraconazole 28 μM + simvastatin at row conc. c1 (0-48 μM)) was 18.6%. For the same molecule, the “Percent inhibition … in HCT116 cells” value ([5]; Table 3: itraconazole 0.87 μM + simvastatin sodium at row conc. c1 (0-22 μM)) was −10.7%, the “Percent inhibition … in HCT116 cells” value ([5]; Table 3: itraconazole 7 μM + simvastatin sodium at row conc. c1 (0-22 μM)) was 12.2% and the “Percent inhibition … in HCT116 cells” value ([5]; Table 3: itraconazole 14 μM + simvastatin sodium at row conc. c1 (0-22 μM)) was 10.6%. The “Percent inhibition … in HCT116 cells” value ([5]; Table 3: itraconazole 28 μM + simvastatin sodium at row conc. c1 (0-22 μM)) was 17.2%, the “Percent inhibition … in HCT116 cells” value ([5]; Table 7: itraconazole 0.87 μM + atorvastatin at row conc. c1 (0-36 μM)) was 1.7% and the “Percent inhibition … in HCT116 cells” value ([5]; Table 7: itraconazole 7 μM + atorvastatin at row conc. c1 (0-36 μM)) was 17.4%. The “Percent inhibition … in HCT116 cells” value ([5]; Table 7: itraconazole 14 μM + atorvastatin at row conc. c1 (0-36 μM)) was 18.1%, the “Percent inhibition … in HCT116 cells” value ([5]; Table 7: itraconazole 28 μM + atorvastatin at row conc. c1 (0-36 μM)) was 18.6% and the “Percent inhibition … in HCT116 cells” value ([5]; Table 11: itraconazole 0.87 μM + fluvastatin at row conc. c1 (0-49 μM)) was 2.2%. For the same molecule, the “Percent inhibition … in HCT116 cells” value ([5]; Table 11: itraconazole 7 μM + fluvastatin at row conc. c1 (0-49 μM)) was 18.9%, the “Percent inhibition … in HCT116 cells” value ([5]; Table 11: itraconazole 14 μM + fluvastatin at row conc. c1 (0-49 μM)) was 20.2% and the “Percent inhibition … in HCT116 cells” value ([5]; Table 11: itraconazole 28 μM + fluvastatin at row conc. c1 (0-49 μM)) was 20.4%. The “Percent inhibition … in HCT116 cells” value ([5]; Table 14: itraconazole 0.87 μM + lovastatin at row conc. c1 (0-48 μM)) was 5.1%, the “Percent inhibition … in HCT116 cells” value ([5]; Table 14: itraconazole 7 μM + lovastatin at row conc. c1 (0-48 μM)) was 17.8% and the “Percent inhibition … in HCT116 cells” value ([5]; Table 14: itraconazole 14 μM + lovastatin at row conc. c1 (0-48 μM)) was 19.5%. The “Percent inhibition … in HCT116 cells” value ([5]; Table 14: itraconazole 28 μM + lovastatin at row conc. c1 (0-48 μM)) was 20.7%, the “Percent inhibition … in HCT116 cells” value ([5]; Table 15: itraconazole 0.87 μM + lovastatin sodium at row conc. c1 (0-22 μM)) was −10.9% and the “Percent inhibition … in HCT116 cells” value ([5]; Table 15: itraconazole 7 μM + lovastatin sodium at row conc. c1 (0-22 μM)) was 18.0%. For the same molecule, the “Percent inhibition … in HCT116 cells” value ([5]; Table 15: itraconazole 14 μM + lovastatin sodium at row conc. c1 (0-22 μM)) was 15.1% and the “Percent inhibition … in HCT116 cells” value ([5]; Table 15: itraconazole 28 μM + lovastatin sodium at row conc. c1 (0-22 μM)) was 9.1%.
